Measured values from patent publication US20250059144A1, “Tellurium-containing compounds and the use of treating bacterial infections thereof” (Kaohsiung Medical University, priority 2021, published 2025).
Where “and” joins values, the source holds several entries; their conditions need not be identical. Identical values can stand only once. Like-named read-outs stand apart in the source and are kept apart here.

Key:
[1] = system: Klebsiella pneumoniae ATCC BAA-1705; assay: MIC in cation-adjusted Muller-Hinton broth; assay type: cell-based
From the text: (§1) Compound (c) was therefore used for further evaluation of anti-bacterial activities to carbapenem resistant bacteria involving Escherichia coli, Klebsiella pneumoniae, Pseudomonas aeruginosa, and Acinetobacter baumannii in the following experiments.

[2] = system: Pseudomonas aeruginosa strain PA13; assay: MIC in cation-adjusted Muller-Hinton broth; assay type: cell-based
From the text: as §1

[3] = system: Escherichia coli CRE-415; assay: MIC in cation-adjusted Muller-Hinton broth; assay type: cell-based
From the text: as §1

[4] = system: Klebsiella pneumoniae strain CRE-723; assay: MIC in cation-adjusted Muller-Hinton broth; assay type: cell-based
From the text: as §1

[5] = system: Acinetobacter baumannii strain AB03; assay: MIC in cation-adjusted Muller-Hinton broth; assay type: cell-based
From the text: as §1

[6] = Acute toxicity test (survival, LD50); assay type: in vivo; conditions: male mice; for survival rate: one week observation
Protocol: In terms of acute toxicology, the dose-response relationship is represented in S-shaped curve. It is not easy to obtain the LD50 value directly through the experiment. Therefore, the animal survival rate of 20˜80% must be used as the benchmark, and the LD50 value is obtained by calculating the dose and survival rate of the area. Six male mice of each group were injected with 15, 20, and 25 mg/kg of compound (c) by intraperitoneal injection. After a week of behavior and physiological observations, the survival rate was recorded and applied for linear regression.

[7] = Histopathological lesion evaluation and severity score of surviving mice; assay type: in vivo
Protocol: In the experiment, 2 mice in the 20 and 25 mg/kg groups were randomly selected for euthanasia, the tissues involving heart, liver, spleen, lung, kidney, stomach, small intestine, large intestine, pancreatic were sliced and stained and were used for histopathological lesion evaluation and severity score by a professional pathology veterinarian (Disease Animal Special Certificate No. 0040).
Extremely light to slight monocyte infiltration in the heart was a lesion that were occasionally observed by a normal mouse might be irrelevant to experimental disposal, and a small number of monocyte infiltration cells could be observed in the portal vein area of the liver of most mice. Mild to moderate hepatocyte glycogen deposition were found in all mice, and significant swollen occurred in their liver cells, this was a common background lesions in normal mice in the case of sacrifice without sufficient fasting. It was worth noting that slight necrosis of the liver was only seen in No. 25-2. Increased mitosis in liver cell is one of the common regeneration or hyperplasia reactions for liver tissue damage. Compared with normal liver tissue, damaged liver tissue may have more mitosis cells, but it is also occasionally seen in normal mice. The mice of Nos. 20-1 and 25-2 had extremely slight to mild hepatocytes increased mitosis. It might be irrelevant to experimental disposal since the degree of increased mitosis was extremely mild to mild and was not related to the dose. Extramedullary hematopoiesis (EMH) are common lesions of mice liver tissue, it can be considered as background lesion if the degree is extremely mild. […] Besides, EMH is also common lesions occurred in spleen of mice and may exist in normal mice, the mild degree of EMH may be therefore considered as background lesions. Extremely mild to mild EMH lesions were found in spleen tissues of all mice. It could be found in the number 25-2 mouse spleen that its lymphoid follicle had multiple extremely mild apoptosis lesions, but no tissue necrosis was found. […] Chronic progressive nephropathy (CPN) involving lesions of tubule basophilia, basement membrane thickening, mononuclear inflammatory cells infiltration, glomerulosclerosis, or tubule dilatation is the most common kidney lesions in the kidney tissues of mice. The cause of CPN is unknown, it can be found in normal mice, and the incidence is increased depend on ages, male mice have a higher incidence than female mice. Therefore, it is generally not recommended to score CPN lesion separately. CPN may also occur after drug administration, it should be considered as treatment-related lesions if the severities have a significant difference in group differences. In this study, there were moderate or higher CPN lesions in each mouse kidney tissue, except for mouse of No. 25-2. However, the difference was not related to the dose and might not be related to the experimental disposal.

[8] = system: Acinetobacter baumannii strain AB03; assay: Carbapenem-resistant Acinetobacter baumannii sepsis infection model; assay type: in vivo; conditions: 40 mg/kg/day, 3 days treatment, A. baumannii AB03 septic mice
Protocol: For establishing the carbapenem-resistant Acinetobacter baumannii sepsis infection model, 12 mice were separated in each group and were infected with the standard Acinetobacter baumannii strain AB03 with lethal dosage by intraperitoneal injection. The compound (c) was given to test groups at the dosage of 0.33, 1.67 and 3.33 mg/kg/day for 3 days treatment, respectively. The clinical standard therapy colistin methanesulfonate (CMS) (40 mg/kg/day) was selected as compared drug. 1×PBS was given as placebo group. Mice survival rate were observed four times a day and were recorded as the curve.

[9] = system: carbapenem-resistant Acinetobacter baumannii isolated from infected blood (n = 28); assay: MICs in carbapenem-resistant isolate panel; assay type: cell-based; conditions: A. baumannii (n = 28)
From the text: as §1
(§2) 34 carbapenem-resistant Klebsiella pneumoniae, 34 carbapenem-resistant Escherichia coli, 29 carbapenem-resistant Pseudomonas aeruginosa isolated from infected blood, and 28 carbapenem-resistant Acinetobacter baumannii isolated from infected blood were selected to evaluate the anti-bacterial activities of compounds (c).

[10] = system: carbapenem-resistant Pseudomonas aeruginosa isolated from infected blood (n = 29); assay: MICs in carbapenem-resistant isolate panel; assay type: cell-based; conditions: P. aeruginosa (n = 29)
From the text: as §1, §2

[11] = system: carbapenem-resistant Klebsiella pneumoniae (n = 34); assay: MICs in carbapenem-resistant isolate panel; assay type: cell-based; conditions: K. pneumoniae (n = 34)
From the text: as §1, §2

[12] = system: carbapenem-resistant Escherichia coli (n = 34); assay: MICs in carbapenem-resistant isolate panel; assay type: cell-based; conditions: E. coli (n = 34)
From the text: as §1, §2

[13] = ATCCBAA1705, read-out: MIC K. pneumoniae ATCC BAA-1705
[14] = PA13, read-out: MIC P. aeruginosa strain PA13
[15] = CRE415, read-out: MIC E. coli CRE-415
[16] = CRE723, read-out: MIC K. pneumoniae strain CRE-723
[17] = AB03, read-out: MIC A. baumannii strain AB03
[18] = 20 mg/kg, mice 20-1, 20-2, day 7
[19] = 25 mg/kg, mice 25-1, 25-2, day 7

Cl[TeH]1(Cl)(Cl)[n+]2cccc3ccc4ccc[n+]1c4c32 [compound (f)]
MIC [1, 13]: 8 µg/mL | MIC [2, 14]: 2 µg/mL | MIC [3, 15]: 8 µg/mL | MIC [4, 16]: 4 µg/mL | MIC [5, 17]: 1 µg/mL

[2H]C1([2H])O[TeH](Cl)(Cl)(Cl)OC1([2H])[2H] [compound (d)]
MIC ([1]; ATCCBAA1705, CAMHB, read-out: MIC K. pneumoniae ATCC BAA-1705): 8 µg/mL | MIC ([2]; PA13, CAMHB, read-out: MIC P. aeruginosa strain PA13): 1 µg/mL | MIC ([3]; CRE415, CAMHB, read-out: MIC E. coli CRE-415): 1 µg/mL | MIC ([4]; CRE723, CAMHB, read-out: MIC K. pneumoniae strain CRE-723): 8 µg/mL | MIC ([5]; AB03, CAMHB, read-out: MIC A. baumannii strain AB03): 1 µg/mL

Cl[Te]1(Cl)Nc2ccccc2N1 [compound (a)]
MIC [1, 13]: 4 µg/mL | MIC [2, 14]: 2 µg/mL | MIC [3, 15]: 1 µg/mL | MIC [4, 16]: 2 µg/mL | MIC [5, 17]: 1 µg/mL

Cl[TeH]1(Cl)(Cl)[n+]2ccccc2SSc2cccc[n+]21 [compound (e)]
MIC [1, 13]: 16 µg/mL | MIC [2, 14]: 16 µg/mL | MIC [3, 15]: 4 µg/mL | MIC [4, 16]: 32 µg/mL | MIC [5, 17]: 4 µg/mL

Cc1cc[n+]2c(c1)-c1cc(C)cc[n+]1[TeH]2(Cl)(Cl)Cl [compound (g)]
MIC [1, 13]: 16 µg/mL | MIC [2, 14]: 4 µg/mL | MIC [3, 15]: 16 µg/mL | MIC [4, 16]: 16 µg/mL | MIC [5, 17]: 4 µg/mL

CN1CCN(C)[TeH]1(Cl)(Cl)Cl [compound (c)]
survival rate ([6]; 15 mg/kg intraperitoneal): 100% | survival rate ([6]; 20 mg/kg intraperitoneal): 83.3% | survival rate ([6]; 25 mg/kg intraperitoneal): 33.3% | LD50 ([6]; intraperitoneal, linear regression of 20 and 25 mg/kg survival): 23.3 mg/kg | Heart Mononuclear cells infiltration severity score [7, 18]: 0 | Heart Necrosis/ degeneration severity score [7, 18]: 0 | Kidney Nephropathy, chronic progressive (CPN) severity score [7, 18]: 3 and 4 | Large intestine Erosion/ ulcer severity score [7, 18]: 0 | Large intestine Mononuclear cells infiltration severity score [7, 18]: 0 | Liver Extramedullary hematopoiesis, EMH severity score [7, 18]: 1 and 2 | Liver Glycogen deposition severity score [7, 18]: 3 and 4 | Liver Increased mitosis severity score [7, 18]: 0 | Liver Necrosis/ degeneration severity score [7, 18]: 0 | Lung Mononuclear cells infiltration severity score [7, 18]: 0 | Lung Necrosis/ degeneration severity score [7, 18]: 0 | Pancreas Mononuclear cells infiltration severity score [7, 18]: 0 | Pancreas Necrosis severity score [7, 18]: 0 | Small intestine Erosion/ ulcer severity score [7, 18]: 0 | Small intestine Mononuclear cells infiltration severity score [7, 18]: 0 | Spleen Apoptosis severity score [7, 18]: 0 | Spleen Extramedullary hematopoiesis, EMH severity score [7, 18]: 2 | Spleen Necrosis severity score [7, 18]: 0 | Stomach Erosion/ ulcer severity score [7, 18]: 0 | Stomach Mononuclear cells infiltration severity score [7, 18]: 0 | Heart Necrosis/ degeneration severity score [7, 19]: 0 | Large intestine Erosion/ ulcer severity score [7, 19]: 0 | Large intestine Mononuclear cells infiltration severity score [7, 19]: 0 | Liver Increased mitosis severity score [7, 19]: 0 | Liver Mononuclear cells infiltration severity score [7, 19]: 1 | Lung Mononuclear cells infiltration severity score [7, 19]: 0 | Lung Necrosis/ degeneration severity score [7, 19]: 0 | Pancreas Mononuclear cells infiltration severity score [7, 19]: 0 | Pancreas Necrosis severity score [7, 19]: 0 | Small intestine Erosion/ ulcer severity score [7, 19]: 0 | Small intestine Mononuclear cells infiltration severity score [7, 19]: 0 | Spleen Extramedullary hematopoiesis, EMH severity score [7, 19]: 2 and 1 | Spleen Necrosis severity score [7, 19]: 0 | Stomach Erosion/ ulcer severity score [7, 19]: 0 | Stomach Mononuclear cells infiltration severity score [7, 19]: 0

Cc1ccc2[n+](c1)[TeH](Cl)(Cl)(Cl)[n+]1cc(C)ccc1-2 [compound (h)]
MIC [1, 13]: 8 µg/mL | MIC [2, 14]: 8 µg/mL | MIC [3, 15]: 4 µg/mL | MIC [4, 16]: 16 µg/mL | MIC [5, 17]: 4 µg/mL

colistin methanesulfonate [CMS]
survival rate [8]: 16.7%

Cl[TeH]1(Cl)(Cl)[n+]2ccccc2-c2cccc[n+]21 [compound (b)]
MIC [1, 13]: 16 µg/mL | MIC [2, 14]: 4 µg/mL | MIC [3, 15]: 4 µg/mL | MIC [4, 16]: 16 µg/mL | MIC [5, 17]: 2 µg/mL

Cl[TeH]1(Cl)(Cl)OCCO1 [AS101]
MIC range [9]: <0.5~8 μg/mL | MIC50 ([9]; Acinetobacter baumannii): 2 µg/mL | MIC90 ([9]; Acinetobacter baumannii): 4 µg/mL | MIC50 [10]: 64 µg/mL | MIC90 [10]: > 64 µg/mL | MIC range [11]: <0.5~16 μg/mL | MIC50 ([11]; Klebsiella pneumoniae): 2 µg/mL | MIC90 ([11]; Klebsiella pneumoniae): 16 µg/mL | MIC range [12]: 0.5~32 μg/mL | MIC50 ([12]; Escherichia coli): 4 µg/mL | MIC90 ([12]; Escherichia coli): 8 µg/mL
